From patent US20040106093A1, “Myb-transformed blood cells and their use for active ingredient screening” (priority 2001, published 2004)

How the values were obtained:
Type in all cases: cell-based, chicken
[1] = system: bFGF/v-myb-cells; assay: Proliferation assay of bFGF-stimulated bFGF/v-myb-cells with specific signalling inhibitors (3H-thymidine incorporation); details: bFGF 25 ng/ml, FIG. 5B; for reduction of bFGF induced bFGF/v-myb cell proliferation: GF 109203X 10 nM, Cyclosporin A 10 nM, KN-62 1 μM (methods); for effect on bFGF induced bFGF/v-myb cell proliferation: proliferation without inhibitor set 100%, C
Experimental: (§1) Cell proliferation was measured as ratio of DNA-synthesis by ^3H-thymidin-incorporation or use CellTiter96® (Promega). Briefly, the cells (4×10^4 cells/100 μl) were incubated in CFU-E-Medium (see above) with 0.8 μCi ^3H-thymidine (specific activity 29 Ci/mmol; Amersham, UK) for 2 hours at 37° C., brought onto filter plates and subjected to scintillation counting. The average values from triplicate samples were determined. The Celltiter96 MTS-assay was for 2 hours. Heparin (B. Braun, Melsungen, Germany) was used at 5 μg/ml. Inhibitors were used at the following concentrations: PD98059 (5 μM), PP2 (100 nM), U-73122 (1 μM), Worthmannin (100 nM), Cyclosporin A (10 nM), GF 109203X (10 nM) and KN-62 (1 μM) (all from Calbiochem).
(B) The bFGF/v-myb-cells were stimulated with bFGF and with specific inhibitors (for details see methods). Cell proliferation was measured in (A) per cent of proliferation in response to bFGF (25 ng/ml) and specific inhibitor is shown. Proliferation without inhibitor was arbitrarily set 100%.
(C) Dose response curve of the PLCy inhibitor U-73122 on bFGF/v-myb-cells in the presence of bFGF (25 ng/ml). Cell proliferation was measured by ^3H-thymidine incorporation assay as in (A). Two independent experiments arc shown.

[2] = system: blastoderm derived bFGF/v-myb-cells; assay: Growth factor requirements of blastoderm derived v-myb cells in culture; details: bFGF 25 ng/ml, SCF 100 ng/ml, TGFα 5 ng/ml; factor alone; FIG. 2B
Experimental: Blastoderm-derived cells (2 days incubation, Hamilton-stage HH 10-12) and bone marrow cells ([…]) were cocultivated for 2 days with a mitomycin C-treated virus or control (non-infected)-CEF in a CFU-E-medium (Beug et al., 1995, Methods Enzymol, 254, 41-76) containing bFGF (25 ng/ml, Promega), chicken-SCF (100 ng/ml; Bartunek et al., 1996, Cytokine, 8, 14-20), TGFα (5 ng/ml, Promega) or different combinations thereof, or no factors. After 2 days nonadherent cells were regenerated and cells were grown at 2×10^6 cells/ml. An outgrowth of myb transformed cells was routinely observed at day 5-7 and cell numbers were determined in regular time intervals using the cell counter and analyser system CASY-1 (Scharfe System, Reutlingen, Germany).
(B) Growth factor requirements of bFGF/v-myb-cells. The cumulative number of cells gown with various factors and combinations thereof are shown. Closed and open symbols refer to cells with an erythroid and myeloid phenotype, respectively.

[3] = system: bFGF/v-myb-cells; assay: Erythroid differentiation assay (anaemic serum plus insulin)
Experimental: To produce erythroid differentiation, cells were incubated in CFU-E-medium without ChS (2×10^6 cells/ml) supplemented with 3% anaemic chicken serum (as source for erythropoietin) plus 10 ng/ml recombinant human insulin (Novo Nordisk) in the presence or absence of 25 ng/ml bFGF. Erythroid differentiation was assessed by (1) determining haemoglobin accumulation in cytospin preparations that stained with neutral, and Diff-Quik (Baxter, Switzerland), or in haemoglobin assay (Beug et al., 1995, Methods Enzymol, 254, 41-76) (2), measuring reduction in cell size with the CASY-1 Cell Counter and Analyser System; and (3) loss of proliferative potential in ^3H-thymidine incorporation assays. Photographs were taken and processed as above.
Differentiation properties of bFGF/v-myb erythroid progenitor cells. Kinetics of the different differentiation parameters of bFGF/v-myb-cells. The number of cells, the cell volume, and the amount of haemoglobin were estimated during the 4-day differentiation in absence (AS, Ins) or presence of bFGF (AS, Ins+bFGF) or without factor (no). The cells remaining in bFGF are only shown as a control (bFGF).

[4] = system: bFGF/v-myb-cells; assay: FGF dose response in cell proliferation assay (MTT / 3H-thymidine incorporation); details: for proliferative (mitogenic) response in the presence of heparin: heparin 5 μg/ml, 3H-thymidine incorporation, FIG. 5A; for stimulation of bFGF/v-myb-cell proliferation: serial dilutions starting at 100 ng/ml, without heparin, FIG. 4
Experimental: as §1
FGF—dose response measured by cell proliferation assay (MTT). Serial dilutions of aFGF and bFGF, respectively, starting at 100 ng/ml are shown.
(A) Dose response curve of aFGF and bFGF in the presence or absence of heparin is shown. Cell proliferation was measured by ^3H-thymidine incorporation assay.

[5] = differentiation induction in the presence of bFGF, FIG. 3

CN([C@@H](Cc1ccc(OS(=O)(=O)c2cccc3cnccc23)cc1)C(=O)N1CCN(c2ccccc2)CC1)S(=O)(=O)c1cccc2cnccc12 [KN-62]
reduction of bFGF induced bFGF/v-myb cell proliferation [1]: Sixty per cent

CC(C)=CCC/C(C)=C/CC/C(C)=C/CSc1ccccc1C(=O)O [FTS]
effect on bFGF induced bFGF/v-myb cell proliferation [1]: neither Ras inhibitor FTS (inhibitor of famesylation) nor src family inhibitor PP-2 had any effect

TGFα: growth factor TGFα
phenotype / outgrowth of v-myb cells with growth factor [2]: outgrowth exclusively of myeloid cells

CN(C)CCCn1cc(C2=C(c3c[nH]c4ccccc34)C(=O)NC2=O)c2ccccc21 [GF109203X]
reduction of bFGF induced bFGF/v-myb cell proliferation [1]: 30%

bFGF: growth factor bFGF (basis fibroblast growth factor)
ability to undergo terminal erythroid differentiation ([3]; differentiation induced by anaemic serum and insulin in the presence of 25 ng/ml bFGF): completely blocked | cell volume [3, 5]: approximately 500 μl | haemoglobin accumulation [3, 5]: did not accumulate haemoglobin | phenotype / outgrowth of v-myb cells with growth factor [2]: proliferating erythroid bFGF/v-myb-cells were obtained only in the presence of bFGF | proliferative (mitogenic) response in the presence of heparin [4]: no further increase | stimulation of bFGF/v-myb-cell proliferation [4]: induced a maximal stimulation

cyclosporine A
reduction of bFGF induced bFGF/v-myb cell proliferation [1]: 45%

COc1cccc(-c2cc(=O)c3ccccc3o2)c1N [PD 98059]
effect on bFGF induced bFGF/v-myb cell proliferation [1]: partially inhibitory only at higher concentrations

aFGF: acidic FGF, FGF-1, member of the FGF family
proliferative (mitogenic) response in the presence of heparin [4]: clear enhancement | stimulation of bFGF/v-myb-cell proliferation [4]: only marginally if at all

COC[C@H]1OC(=O)c2coc3c2[C@@]1(C)C1=C(C3=O)[C@@H]2CCC(=O)[C@@]2(C)C[C@H]1OC(C)=O [Worthmannin]
effect on bFGF induced bFGF/v-myb cell proliferation [1]: ineffective

COc1ccc2c(c1)CC[C@@H]1[C@@H]2CC[C@]2(C)[C@@H](NCCCCCCN3C(=O)C=CC3=O)CC[C@@H]12 [U-73122]
effect on bFGF induced bFGF/v-myb cell proliferation [1]: dramatically reduced

CC1(C)C(C=C(Cl)Cl)C1C(=O)OC(C#N)c1cccc(Oc2ccccc2)c1 (centres unmarked) [cypermethrin]
reduction of bFGF induced bFGF/v-myb cell proliferation [1]: 45%
